The supplement of paper PMC10307832

Key:
Assay in all cases: relative viability (nuclei count vs DMSO), 5 days (fraction); higher = more cells survive
IPA-3 + OSI-027 = compound: C1=CC=C2C(=C1)C=CC(=C2SSC3=C(C=CC4=CC=CC=C43)O)O [IPA-3] + COc1cccc2cc(-c3nc([C@H]4CC[C@H](C(=O)O)CC4)n4ncnc(N)c34)[nH]c12 [OSI-027] (partner 0.5 µM)
Procedure, shortened: (§1)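 The day after seeding in 1536-well plates, lung cancer cell lines were treated by pin tool with a single drug, or with a fixed anchor-drug dose together with five library-drug doses (not always all listed) in √10 steps. After 5 days, a combined fix-and-stain solution (final 0.05% Triton X-100, 1% formaldehyde, 1 ug/ml Hoechst) was added. Nuclei counted on 4× images gave relative viability as treated counts over vehicle counts, reported as the median of duplicate plates.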

Doramapimod + AZD7762 = compound: Cc1ccc(-n2nc(C(C)(C)C)cc2NC(=O)Nc2ccc(OCCN3CCOCC3)c3ccccc23)cc1 [Doramapimod] + NC(=O)Nc1cc(-c2cccc(F)c2)sc1C(=O)N[C@H]1CCCNC1 [AZD7762] (partner 0.2 µM)
Procedure, shortened: as §1

RAF265 + OSI-027 = compound: Cn1c(Nc2ccc(C(F)(F)F)cc2)nc2cc(Oc3ccnc(-c4ncc(C(F)(F)F)[nH]4)c3)ccc21 [RAF265] + COc1cccc2cc(-c3nc([C@H]4CC[C@H](C(=O)O)CC4)n4ncnc(N)c34)[nH]c12 [OSI-027] (partner 0.5 µM)
Procedure, shortened: as §1

RAF265 + Phenformin = compound: Cn1c(Nc2ccc(C(F)(F)F)cc2)nc2cc(Oc3ccnc(-c4ncc(C(F)(F)F)[nH]4)c3)ccc21 [RAF265] + N=C(N)NC(=N)NCCc1ccccc1 [Phenformin] (partner 250 µM)
Procedure, shortened: as §1

Cell Line | relative viability (IPA-3 + OSI-027; first compound 0.2 µM) | relative viability (IPA-3 + OSI-027; first compound 0.6325 µM) | relative viability (IPA-3 + OSI-027; first compound 2 µM) | relative viability (IPA-3 + OSI-027; first compound 6.325 µM) | relative viability (IPA-3 + OSI-027; first compound 20 µM) | relative viability (Doramapimod + AZD7762; first compound 0.02 µM) | relative viability (Doramapimod + AZD7762; first compound 0.06325 µM) | relative viability (Doramapimod + AZD7762; first compound 0.2 µM) | relative viability (Doramapimod + AZD7762; first compound 0.6325 µM) | relative viability (Doramapimod + AZD7762; first compound 2 µM) | relative viability (RAF265 + OSI-027; first compound 0.01 µM) | relative viability (RAF265 + OSI-027; first compound 0.03162 µM) | relative viability (RAF265 + OSI-027; first compound 0.1 µM) | relative viability (RAF265 + OSI-027; first compound 0.3162 µM) | relative viability (RAF265 + OSI-027; first compound 1 µM) | relative viability (RAF265 + Phenformin; first compound 0.01 µM) | relative viability (RAF265 + Phenformin; first compound 0.03162 µM) | relative viability (RAF265 + Phenformin; first compound 0.1 µM) | relative viability (RAF265 + Phenformin; first compound 0.3162 µM) | relative viability (RAF265 + Phenformin; first compound 1 µM)
ABC-1 | 0.55 | 0.426 | 0.457 | 0.564 | 0.567 | 0.761 | 0.674 | 0.874 | 0.794 | 0.674 | 0.39 | 0.48 | 0.365 | 0.408 | 0.31 | 0.21 | 0.223 | 0.228 | 0.187 | 0.21
NCI-H647 | 1.04 | 0.576 | 0.629 | 0.676 | 0.301 | 0.602 | 0.616 | 0.461 | 0.485 | 0.454 | 0.598 | 0.618 | 0.417 | 0.246 | 0.213 | 0.432 | 0.515 | 0.38 | 0.282 | 0.212
NCI-H1755 | 0.831 | 0.616 | 0.688 | 0.607 | 0.702 | 0.428 | 0.5 | 0.379 | 0.477 | 0.412 | 0.689 | 0.636 | 0.597 | 0.455 | 0.303 | 0.612 | 0.59 | 0.571 | 0.459 | 0.432
EPLC-272H | 0.293 | 0.281 | 0.236 | 0.264 | 0.335 | 0.209 | 0.209 | 0.254 | – | 0.22 | 0.251 | 0.288 | 0.237 | 0.218 | 0.184 | 0.267 | 0.323 | 0.261 | 0.249 | 0.206
NCI-H1437 | 1.1 | 0.942 | 0.68 | 0.989 | 1.17 | 1.13 | 1.16 | 1.23 | 1.05 | 1.08 | 0.863 | 0.918 | 0.82 | 0.982 | 0.611 | 0.352 | 0.388 | 0.287 | 0.329 | 0.242
EKVX | 0.649 | 0.68 | 0.738 | 0.728 | 0.786 | 0.679 | 0.676 | 0.717 | 0.635 | 0.678 | 0.689 | 0.666 | 0.744 | 0.483 | 0.534 | 0.266 | 0.249 | 0.248 | 0.186 | 0.19
NCI-H1651 | 0.71 | 0.73 | 0.695 | 0.804 | 0.706 | 0.441 | 0.478 | 0.435 | 0.441 | 0.356 | 0.783 | 0.776 | 0.695 | 0.52 | 0.362 | 0.369 | 0.334 | 0.316 | 0.294 | 0.295
HCC-15 | 0.765 | 0.685 | 0.636 | 0.688 | 0.718 | 1.35 | 1.17 | 1.23 | – | 1.17 | 0.674 | 0.605 | 0.566 | 0.26 | 0.304 | 0.486 | 0.483 | 0.464 | 0.355 | 0.316
